Measurements from ChEMBL document CHEMBL1138101, “Heteroaryl substituted bis-trifluoromethyl carbinols as malonyl-CoA decarboxylase inhibitors” (Bioorg Med Chem Lett, 2006).

Target: T1, Malonyl-CoA decarboxylase, mitochondrial (Homo sapiens, UniProt O95822)
T1 sequence (O95822 whole entry): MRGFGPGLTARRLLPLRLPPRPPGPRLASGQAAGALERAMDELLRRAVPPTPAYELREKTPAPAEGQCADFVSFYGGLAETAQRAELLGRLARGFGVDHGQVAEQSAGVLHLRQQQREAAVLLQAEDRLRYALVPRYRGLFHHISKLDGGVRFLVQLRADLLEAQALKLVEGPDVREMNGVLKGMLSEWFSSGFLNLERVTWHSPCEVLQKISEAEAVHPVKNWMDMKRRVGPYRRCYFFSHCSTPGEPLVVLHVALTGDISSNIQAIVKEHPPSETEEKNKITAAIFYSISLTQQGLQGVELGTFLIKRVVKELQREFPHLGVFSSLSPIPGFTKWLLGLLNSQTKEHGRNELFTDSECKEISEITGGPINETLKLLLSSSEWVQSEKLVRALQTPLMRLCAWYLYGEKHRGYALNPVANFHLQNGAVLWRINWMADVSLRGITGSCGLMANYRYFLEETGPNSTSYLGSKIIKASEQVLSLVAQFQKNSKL

SMILES: CC(C)C(=O)N(CC1CCCO1)c1ncc(C(O)(C(F)(F)F)C(F)(F)F)s1 (stereo unspecified)
- IC50: 1580 nM
